Laboratory results as given in PubChem BioAssay (NCI).
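Test compounds were applied to cells in 96-well plates for 48 hours at 5 doses. GI50 marks 50% less growth. Definition used: TGI = concentration required for complete inhibition of growth.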

What was measured:
Test in all cases: inhibition of tumour cell growth, NCI panel, 48 h; in the data active = GI50 below about 0.43 µM; inactive = the rest
[1] = tested on: HCT-15 colon
[2] = tested on: KM12 colon
[3] = tested on: HCC-2998 colon
[4] = tested on: HT29 colon
[5] = tested on: MALME-3M melanoma
[6] = tested on: SN12C renal
[7] = tested on: HS 578T breast
[8] = tested on: SF-268 CNS
[9] = tested on: SW-620 colon
[10] = tested on: NCI-H522 lung
[11] = tested on: SF-539 CNS
[12] = tested on: HCT-116 colon
[13] = tested on: NCI-H460 lung
[14] = tested on: MDA-MB-231 breast
[15] = tested on: A498 renal
[16] = tested on: A549 NSCLC
[17] = tested on: MCF7 breast
[18] = tested on: CAKI-1 renal
[19] = tested on: NCI/ADR-RES ovarian
[20] = tested on: PC-3 prostate
[21] = tested on: TK-10 renal
[22] = tested on: SNB-75 CNS
[23] = tested on: CCRF-CEM leukemia
[24] = tested on: U251 CNS
[25] = tested on: COLO 205 colon
[26] = tested on: NCI-H23 lung
[27] = tested on: MOLT-4 leukemia
[28] = tested on: UO-31 renal
[29] = tested on: ACHN renal
[30] = tested on: HOP-92 NSCLC
[31] = tested on: IGROV1 ovarian
[32] = tested on: HL-60(TB) leukemia
[33] = tested on: M14 melanoma
[34] = tested on: SK-MEL-2 melanoma
[35] = tested on: SNB-19 CNS
[36] = tested on: T-47D breast
[37] = tested on: DU-145 prostate
[38] = tested on: RPMI-8226 leukemia
[39] = tested on: OVCAR-3 ovarian
[40] = tested on: OVCAR-8 ovarian
[41] = tested on: SK-OV-3 ovarian
[42] = tested on: EKVX NSCLC
[43] = tested on: SK-MEL-28 melanoma
[44] = tested on: LOX IMVI melanoma
[45] = tested on: RXF 393 renal
[46] = tested on: HOP-62 NSCLC
[47] = tested on: OVCAR-4 ovarian
[48] = tested on: 786-0 renal
[49] = tested on: SR leukemia
[50] = tested on: UACC-257 melanoma
[51] = tested on: SK-MEL-5 melanoma
[52] = tested on: OVCAR-5 ovarian
[53] = tested on: MDA-MB-435
[54] = tested on: BT-549 breast
[55] = tested on: SF-295 CNS
[56] = tested on: K-562 leukemia
[57] = tested on: UACC-62 melanoma
[58] = tested on: NCI-H226 lung

O=C1/C=C/[C@@H](O)[C@@H]2C[C@@H](O)C[C@H]2/C=C/CCC[C@H](CCc2ccc3ncccc3c2)O1
5.89 µM: TGI [38]
6.5 µM: TGI [49]
18.3 µM: TGI [33]
> 47 µM: TGI [40]
0.343 µM: TGI [25]
13.3 µM: TGI [53]
> 36 µM: TGI [20]
0.821 µM: TGI [21]
0.678 µM: TGI [5]
> 32.1 µM: TGI [41]
8.1 µM: TGI [36]
0.555 µM: TGI [4]
9.05 µM: TGI [19]
0.837 µM: TGI [43]
> 57.9 µM: TGI [16]
> 34 µM: TGI [31]
20 µM: TGI [28]
0.768 µM: TGI [9]
0.419 µM: TGI [45]
1.54 µM: TGI [27]
inactive: GI50 [7] 1.23 µM | GI50 [11] 0.495 µM | GI50 [30] 2.77 µM | GI50 [37] 0.564 µM | GI50 [39] 0.518 µM
> 29.7 µM: TGI [29]
4.99 µM: TGI [3]
16.2 µM: TGI [54]
0.654 µM: TGI [34]
8.44 µM: TGI [57]
5.95 µM: TGI [50]
0.691 µM: TGI [32]
0.162 µM: TGI [51]
0.523 µM: TGI [10]
1.18 µM: TGI [26]
0.504 µM: TGI [48]
> 64.9 µM: TGI [42]
> 100 µM: TGI [6] | TGI [7] | TGI [8] | TGI [11] | TGI [17] | TGI [24] | TGI [30] | TGI [35] | TGI [37] | TGI [39] | TGI [52] | TGI [55] | TGI [56]
0.373 µM: TGI [14]
14.5 µM: TGI [1]
0.693 µM: TGI [12]
8.4 µM: TGI [23]
> 29.8 µM: TGI [22]
active: GI50 [1] 0.337 µM | GI50 [2] 0.175 µM | GI50 [3] 0.252 µM | GI50 [4] 0.0905 µM | GI50 [5] 0.208 µM | GI50 [6] 0.334 µM | GI50 [8] 0.322 µM | GI50 [9] 0.265 µM | GI50 [10] 0.212 µM | GI50 [12] 0.245 µM | GI50 [13] 0.36 µM | GI50 [14] 0.167 µM | GI50 [15] 0.1 µM | GI50 [16] 0.308 µM | GI50 [17] 0.27 µM | GI50 [18] 0.282 µM | GI50 [19] 0.396 µM | GI50 [20] 0.313 µM | GI50 [21] 0.265 µM | GI50 [22] 0.101 µM | GI50 [23] 0.306 µM | GI50 [24] 0.347 µM | GI50 [25] 0.19 µM | GI50 [26] 0.219 µM | GI50 [27] 0.289 µM | GI50 [28] 0.299 µM | GI50 [29] 0.388 µM | GI50 [31] 0.394 µM | GI50 [32] 0.268 µM | GI50 [33] 0.327 µM | GI50 [34] 0.266 µM | GI50 [35] 0.4 µM | GI50 [36] 0.312 µM | GI50 [38] 0.243 µM | GI50 [40] 0.275 µM | GI50 [41] 0.336 µM | GI50 [42] 0.289 µM | GI50 [43] 0.0637 µM | GI50 [44] 0.152 µM | GI50 [45] 0.0945 µM | GI50 [46] 0.317 µM | GI50 [47] 0.253 µM | GI50 [48] 0.218 µM | GI50 [49] 0.296 µM | GI50 [50] 0.13 µM | GI50 [51] 0.0567 µM | GI50 [52] 0.42 µM | GI50 [53] 0.318 µM | GI50 [54] 0.402 µM | GI50 [55] 0.351 µM | GI50 [56] 0.386 µM | GI50 [57] 0.303 µM
0.333 µM: TGI [44]
> 46.8 µM: TGI [13]

NC(=O)CN1CC(C2=C(O)CN(CC(N)=O)C2=O)=CC1=O
> 100 µM: TGI [1] | TGI [2] | TGI [3] | TGI [4] | TGI [5] | TGI [6] | TGI [7] | TGI [8] | TGI [9] | TGI [10] | TGI [11] | TGI [12] | TGI [13] | TGI [14] | TGI [15] | TGI [16] | TGI [17] | TGI [18] | TGI [19] | TGI [20] | TGI [21] | TGI [22] | TGI [23] | TGI [24] | TGI [25] | TGI [26] | TGI [27] | TGI [28] | TGI [29] | TGI [30] | TGI [31] | TGI [32] | TGI [33] | TGI [34] | TGI [35] | TGI [36] | TGI [37] | TGI [38] | TGI [39] | TGI [40] | TGI [41] | TGI [42] | TGI [43] | TGI [44] | TGI [46] | TGI [47] | TGI [48] | TGI [49] | TGI [50] | TGI [51] | TGI [58] | TGI [52] | TGI [53] | TGI [54] | TGI [55] | TGI [56] | TGI [57]
